These results are taken from patent US4822800A (Ortho Pharmaceutical Corporation, priority 1986, dated 1989).

Test [1] relates to adult mongrel dogs. Nature of the test: renal vasodilating activity in anesthetized dogs. Type of test: in vivo, dog (adult mongrel). Conditions: for change in vivo at 1.2 mg/kg / change in vivo at 0.34 mg/kg / change in vivo at 0.2 mg/kg / change in vivo at 0.14 mg/kg / change in vivo at 13.9 mg/kg / change in vivo at up to 13.9 mg/kg: Canis lupus familiaris, renal vasodilator, relative to controls; for change in vivo at 1.2 mg/kg: dose 1.2 mg/kg intravenous; for renal vasodilating activity (in words): summary of Table 4; for change in vivo at 0.34 mg/kg: dose 0.34 mg/kg intravenous; for change in vivo at 0.2 mg/kg: dose 0.2 mg/kg intravenous; for change in vivo at 0.14 mg/kg: dose 0.14 mg/kg intravenous; for change in vivo at 13.9 mg/kg / change in vivo at up to 13.9 mg/kg: dose 13.9 mg/kg intravenous. An outline of the steps:
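In anesthetized mongrel dogs, compounds infused IV at rising (usually three-fold) rates, 5 min per dose, after a dopamine check (3 μg/kg/min, 10 min). Renal artery flow measured electromagnetically, pressure via carotid cannula; values are maximal % change from pre-drug control in RBF, RVR (MABP/flow), MABP and HR.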

For test [2], the system named is adult mongrel dogs. Briefly: acute in vivo cardiotonic activity in anesthetized dogs. To be noted: for change in vivo at 0.375 mg/kg / change in vivo at 1.875 mg/kg / change in vivo at 0.875 mg/kg / change in vivo at 0.025 mg/kg: Canis lupus familiaris, cardiotonic, relative to controls; for change in vivo at 0.375 mg/kg: dose 0.375 mg/kg intravenous; for cardiotonic activity (in words): summary of Table 4; for change in vivo at 1.875 mg/kg: dose 1.875 mg/kg intravenous; for change in vivo at 0.875 mg/kg: dose 0.875 mg/kg intravenous; for change in vivo at 0.025 mg/kg: dose 0.025 mg/kg intravenous. Set-up: species or system dog (adult mongrel). An outline of the steps:
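Pentobarbital-anaesthetised, artificially respired mongrel dogs received compound by intravenous infusion or oral bolus. Recordings covered femoral arterial pressure, heart rate, LV dP/dt max (Millar catheter), aortic flow cardiac output, right-ventricular contractile force (strain gauge) and lead II ECG. Dopamine 10 μg/kg/min checked responsiveness; dose-related changes were expressed as % of pretreatment values and rated.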

In test [3] the target is T1, Phosphodiesterase fraction III (Canis lupus familiaris, UniProt A0A8I3NYE0).
T1 construct: isolated as an isozyme from the crude canine heart homogenate; from tissue; host or cells: canine heart (crude homogenate, ion exchange chromatography, third and last PDE peak)
T1 sequence (A0A8I3NYE0 1-1135): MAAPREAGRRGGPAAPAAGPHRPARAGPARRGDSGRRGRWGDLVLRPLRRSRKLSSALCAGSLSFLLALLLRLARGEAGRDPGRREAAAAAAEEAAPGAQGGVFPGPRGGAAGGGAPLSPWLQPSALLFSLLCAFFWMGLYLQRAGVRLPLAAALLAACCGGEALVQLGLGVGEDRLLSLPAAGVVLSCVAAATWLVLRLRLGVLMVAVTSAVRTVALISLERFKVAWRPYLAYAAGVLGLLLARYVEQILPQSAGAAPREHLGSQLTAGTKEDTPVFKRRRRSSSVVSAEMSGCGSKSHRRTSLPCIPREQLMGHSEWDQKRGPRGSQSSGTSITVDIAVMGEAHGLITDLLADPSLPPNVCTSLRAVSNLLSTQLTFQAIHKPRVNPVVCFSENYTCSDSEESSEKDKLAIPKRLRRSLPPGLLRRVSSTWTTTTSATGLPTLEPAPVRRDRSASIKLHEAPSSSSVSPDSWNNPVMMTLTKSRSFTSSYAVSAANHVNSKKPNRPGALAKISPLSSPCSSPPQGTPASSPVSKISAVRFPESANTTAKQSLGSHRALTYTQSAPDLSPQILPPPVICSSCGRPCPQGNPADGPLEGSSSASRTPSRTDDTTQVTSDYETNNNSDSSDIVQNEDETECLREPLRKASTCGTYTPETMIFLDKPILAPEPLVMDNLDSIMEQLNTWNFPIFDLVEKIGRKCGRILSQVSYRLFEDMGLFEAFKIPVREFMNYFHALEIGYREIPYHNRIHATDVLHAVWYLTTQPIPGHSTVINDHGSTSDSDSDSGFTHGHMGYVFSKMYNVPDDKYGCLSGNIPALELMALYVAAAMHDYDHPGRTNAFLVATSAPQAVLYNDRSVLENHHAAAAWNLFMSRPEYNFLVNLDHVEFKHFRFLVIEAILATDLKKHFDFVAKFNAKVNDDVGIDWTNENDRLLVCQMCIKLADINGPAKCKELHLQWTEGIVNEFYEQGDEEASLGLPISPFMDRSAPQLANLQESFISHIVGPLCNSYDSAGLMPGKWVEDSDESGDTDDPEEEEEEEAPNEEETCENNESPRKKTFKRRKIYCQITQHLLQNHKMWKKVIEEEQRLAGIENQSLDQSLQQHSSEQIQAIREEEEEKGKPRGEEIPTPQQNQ
Briefly: inhibition of phosphodiesterase fraction III activity. Type of test: biochemical, canine (heart). To be noted: for IC50: cyclic AMP 0.10-1.0 uM, pH 7.4, canine heart enzyme; for phosphodiesterase fraction III inhibition (in words): summary of Table 5.

Where [4] appears, read: read-out: MABP (mean arterial blood pressure).
The mark [5] stands for this setting: read-out: RBF (renal blood flow).
Where [6] appears, read: read-out: RVR (renal vascular resistance).
Where [7] appears, read: read-out: dP/dt (maximum change left ventricular pressure with time).

Entries after “also recorded” stand apart in the source; their conditions may differ. Where two headings read alike, the source gives them in different places.

As for `CCCCOc1cc2c(C)nc(O)cc2cc1OC` [AL], the change in vivo at 1.2 mg/kg in the test with adult mongrel dogs [1] (read-out: HR (heart rate)) was 9%; in the test with adult mongrel dogs [1] (setting [4]), -6%; in the test on adult mongrel dogs [1] (setting [5]) it was 13%; in the test on adult mongrel dogs [1] (setting [6]), -17%. For the same molecule, in the test with adult mongrel dogs [1], the “renal vasodilating activity (in words)” value was “renal vasodilating properties”. Moreover, the change in vivo at 0.375 mg/kg in the test with adult mongrel dogs [2] (read-out: CF (cardiac force)) was 138%; in the test on adult mongrel dogs [2] (read-out: HR (heart rate)), 22%; in the test on adult mongrel dogs [2] (setting [4]), -10%; in the test on adult mongrel dogs [2] (setting [7]), 46%. Further, in the test on adult mongrel dogs [2], the “cardiotonic activity (in words)” value was “cardiotonic properties”. Also, the IC50 in test [3] was found to be 37 µM. The “phosphodiesterase fraction III inhibition (in words)” value in test [3] is “inhibit phosphodiesterase fraction III activity; also recorded: phosphodiesterase fraction III inhibiting properties”.
Turning to `COc1cc2c(C)nc(O)c(C3CCCC3)c2cc1OC` [AN], the change in vivo at 0.34 mg/kg in the test on adult mongrel dogs [1] (read-out: HR (heart rate)) was 1%; in the test on adult mongrel dogs [1] (setting [4]), -1%; in the test on adult mongrel dogs [1] (setting [5]), 10%; with adult mongrel dogs [1] (setting [6]) it was -10%. Also, the change in vivo at 1.875 mg/kg amounted to 46% in the test with adult mongrel dogs [2] (read-out: CF (cardiac force)), 5% with adult mongrel dogs [2] (read-out: HR (heart rate)), 3% in the test on adult mongrel dogs [2] (setting [4]) and 22% in the test with adult mongrel dogs [2] (setting [7]). The molecule also yielded an IC50 in test [3] of 128 µM.
As for `Br.COc1cc2c(C)nc(O)c(Br)c2cc1OC.O` [Compound AC, 4-Bromo-3-hydroxy-6,7-dimethoxy-1-methylisoquinoline Hydrobromide Monohydrate], the change in vivo at 0.2 mg/kg in the test with adult mongrel dogs [1] (setting [5]) is 8%; in the test on adult mongrel dogs [1] (setting [6]), -27%. In addition, the change in vivo at 0.875 mg/kg is 128% in the test with adult mongrel dogs [2] (read-out: CF (cardiac force)), 26% with adult mongrel dogs [2] (read-out: HR (heart rate)), -40% in the test with adult mongrel dogs [2] (setting [4]) and 25% in the test with adult mongrel dogs [2] (setting [7]). The molecule also had an IC50 in test [3] of 10 µM. Moreover, the “phosphodiesterase fraction III inhibition (in words)” value in test [3] is reported as “inhibit phosphodiesterase fraction III activity”.
With `COc1cc2c(C)nc(O)c(Cl)c2cc1OC` [Compound AE, 4-Chloro-3-hydroxy-6,7-dimethoxy-1-methylisoquinoline], the change in vivo at 0.14 mg/kg in the test with adult mongrel dogs [1] (setting [5]) was 12%; with adult mongrel dogs [1] (setting [6]) it was -25%. Besides, the change in vivo at 0.875 mg/kg came to 89% with adult mongrel dogs [2] (read-out: CF (cardiac force)), 29% in the test with adult mongrel dogs [2] (read-out: HR (heart rate)), 1% in the test on adult mongrel dogs [2] (setting [4]) and 88% in the test with adult mongrel dogs [2] (setting [7]). The IC50 in test [3] amounted to 62 µM.
In the case of `COC(=O)CCc1c(O)nc(C)c2cc(OC)c(OC)cc12` [Compound B, 4-(β-Carbomethoxyethyl)-3-hydroxy-6,7-dimethoxy-1-methylisoquinoline], the change in vivo at 13.9 mg/kg in the test with adult mongrel dogs [1] (read-out: HR (heart rate)) is 12%; with adult mongrel dogs [1] (setting [4]), -28%; in the test on adult mongrel dogs [1] (setting [5]) it was 15%. In addition, the change in vivo at up to 13.9 mg/kg in the test with adult mongrel dogs [1] (setting [6]) was -38%. Moreover, the “renal vasodilating activity (in words)” value in the test with adult mongrel dogs [1] was “renal vasodilating properties”. For the same molecule, the change in vivo at 0.875 mg/kg in the test on adult mongrel dogs [2] (read-out: CF (cardiac force)) is 140%; in the test with adult mongrel dogs [2] (read-out: HR (heart rate)) it was 34%; in the test with adult mongrel dogs [2] (setting [4]) it was -12%; in the test with adult mongrel dogs [2] (setting [7]) it was 78%. In the test with adult mongrel dogs [2], the “cardiotonic activity (in words)” value is reported as “cardiotonic properties”. The molecule also registered an IC50 in test [3] of 40 µM. In addition, the “phosphodiesterase fraction III inhibition (in words)” value in test [3] was “inhibit phosphodiesterase fraction III activity; also recorded: phosphodiesterase fraction III inhibiting properties”.
Regarding `CCc1c(O)nc(C)c2cc(OC)c(OC)cc12` [Compound Z, 4-ethyl-3-hydroxy-6,7-dimethoxy-1-methylisoquinoline], the change in vivo at 1.2 mg/kg in the test on adult mongrel dogs [1] (setting [5]) was 10%; in the test with adult mongrel dogs [1] (setting [6]), -38%. The “renal vasodilating activity (in words)” value in the test with adult mongrel dogs [1] is “renal vasodilating properties”. For the same molecule, the change in vivo at 0.025 mg/kg was 143% with adult mongrel dogs [2] (read-out: CF (cardiac force)), 13% with adult mongrel dogs [2] (read-out: HR (heart rate)), -12% with adult mongrel dogs [2] (setting [4]) and 98% with adult mongrel dogs [2] (setting [7]). Moreover, the “cardiotonic activity (in words)” value in the test on adult mongrel dogs [2] was “cardiotonic properties”. In test [3], this molecule displayed an IC50 of 2.4 µM. In test [3], the “phosphodiesterase fraction III inhibition (in words)” value is on record as “inhibit phosphodiesterase fraction III activity; also recorded: phosphodiesterase fraction III inhibiting properties”.
Turning to `CCCc1c(O)nc(C)c2cc(OC)c(OC)cc12` [Y], the change in vivo at 13.9 mg/kg in the test on adult mongrel dogs [1] (setting [5]) is 10%. Besides, the change in vivo at up to 13.9 mg/kg in the test with adult mongrel dogs [1] (setting [6]) was -13%. Also, in the test with adult mongrel dogs [1], the “renal vasodilating activity (in words)” value is “renal vasodilating properties”. Also, the change in vivo at 0.375 mg/kg with adult mongrel dogs [2] (read-out: CF (cardiac force)) is 84%; in the test with adult mongrel dogs [2] (read-out: HR (heart rate)), 12%; in the test on adult mongrel dogs [2] (setting [4]), -16%; with adult mongrel dogs [2] (setting [7]), 44%. For the same molecule, in the test on adult mongrel dogs [2], the “cardiotonic activity (in words)” value was “cardiotonic properties”. Also, the IC50 in test [3] worked out at 5 µM. For the same molecule, the “phosphodiesterase fraction III inhibition (in words)” value in test [3] is “inhibit phosphodiesterase fraction III activity; also recorded: phosphodiesterase fraction III inhibiting properties”.
